Measured values reported in the supplement of paper PMC11451515.

Tested on: NOMO1
Test: cell viability relative to DMSO control; higher = less cytotoxic
Details: 48 h
Outline: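 NOMO1 or SEM (500 cells/well) or P12-Ichikawa (1000 cells/well) leukemia cells were adapted for at least four passages in each medium. They were seeded in 1536-well plates (5 μl) and pin-dosed with library compounds in DMSO over an 11-point threefold series, 47 μM to 0.79 nM. CellTiter-Glo One luminescence was read after 48 h at 37°C. Viability is the per-plate percentage relative to DMSO wells, with cell-free wells as background.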

[1] = HPLM + 10% dialyzed FBS, 0.000781 µM
[2] = HPLM + 10% dialyzed FBS, 0.00234 µM
[3] = HPLM + 10% dialyzed FBS, 0.00702 µM
[4] = HPLM + 10% dialyzed FBS, 0.0211 µM
[5] = HPLM + 10% dialyzed FBS, 0.0632 µM
[6] = HPLM + 10% dialyzed FBS, 0.19 µM
[7] = HPLM + 10% dialyzed FBS, 0.569 µM
[8] = HPLM + 10% dialyzed FBS, 1.71 µM
[9] = HPLM + 10% dialyzed FBS, 5.12 µM
[10] = HPLM + 10% dialyzed FBS, 15.4 µM
[11] = HPLM + 10% dialyzed FBS, 46.1 µM
[12] = RPMI 5 mM glucose + 10% FBS, 0.000781 µM
[13] = RPMI 5 mM glucose + 10% FBS, 0.00234 µM
[14] = RPMI 5 mM glucose + 10% FBS, 0.00702 µM
[15] = RPMI 5 mM glucose + 10% FBS, 0.0211 µM
[16] = RPMI 5 mM glucose + 10% FBS, 0.0632 µM
[17] = RPMI 5 mM glucose + 10% FBS, 0.19 µM
[18] = RPMI 5 mM glucose + 10% FBS, 0.569 µM
[19] = RPMI 5 mM glucose + 10% FBS, 1.71 µM
[20] = RPMI 5 mM glucose + 10% FBS, 5.12 µM
[21] = RPMI 5 mM glucose + 10% FBS, 15.4 µM
[22] = RPMI 5 mM glucose + 10% FBS, 46.1 µM
[23] = RPMI 5 mM glucose + 10% dialyzed FBS, 0.000781 µM
[24] = RPMI 5 mM glucose + 10% dialyzed FBS, 0.00234 µM
[25] = RPMI 5 mM glucose + 10% dialyzed FBS, 0.00702 µM
[26] = RPMI 5 mM glucose + 10% dialyzed FBS, 0.0211 µM
[27] = RPMI 5 mM glucose + 10% dialyzed FBS, 0.0632 µM
[28] = RPMI 5 mM glucose + 10% dialyzed FBS, 0.19 µM
[29] = RPMI 5 mM glucose + 10% dialyzed FBS, 0.569 µM
[30] = RPMI 5 mM glucose + 10% dialyzed FBS, 1.71 µM
[31] = RPMI 5 mM glucose + 10% dialyzed FBS, 5.12 µM
[32] = RPMI 5 mM glucose + 10% dialyzed FBS, 15.4 µM
[33] = RPMI 5 mM glucose + 10% dialyzed FBS, 46.1 µM

SMILES | cell viability [1] | cell viability [2] | cell viability [3] | cell viability [4] | cell viability [5] | cell viability [6] | cell viability [7] | cell viability [8] | cell viability [9] | cell viability [10] | cell viability [11] | cell viability [12] | cell viability [13] | cell viability [14] | cell viability [15] | cell viability [16] | cell viability [17] | cell viability [18] | cell viability [19] | cell viability [20] | cell viability [21] | cell viability [22] | cell viability [23] | cell viability [24] | cell viability [25] | cell viability [26] | cell viability [27] | cell viability [28] | cell viability [29] | cell viability [30] | cell viability [31] | cell viability [32] | cell viability [33]
CCOC(=O)\C1=C\[C@@H](OC(CC)CC)[C@H](NC(C)=O)[C@@H](N)C1 | 90.4% | 86.1% | 94.3% | 98.9% | 93.7% | 107% | 92.5% | 93.1% | 84% | 86.9% | 86.4% | 91.9% | 92.5% | 94.9% | 91.9% | 95.1% | 98.9% | 95.7% | 102% | 88.9% | 103% | 82.7% | 84.4% | 93.4% | 102% | 87.4% | 94.9% | 106% | 93.6% | 91.7% | 99.3% | 103% | 87.1%
CC1(C)C(N(O)C(=O)Nc2ccc(Cl)cc2)N(c2ccc(Cl)cc2)C(=O)N1CC(=O)N/N=C/C=C/c1ccc([N+](=O)[O-])o1 (stereo not drawn) | 121% | 118% | 125% | 124% | 124% | 115% | 123% | 116% | 108% | 95.8% | 50.2% | 116% | 111% | 109% | 120% | 110% | 104% | 102% | 110% | 97.4% | 104% | 75.1% | 106% | 107% | 103% | 124% | 122% | 121% | 111% | 111% | 108% | 117% | 71.3%
COc1ccc2cc1Oc1ccc(cc1)C[C@H]1c3cc(c(OC)cc3CCN1C)Oc1c(OC)c(OC)cc3c1[C@H](C2)N(C)CC3 | – | – | – | – | – | – | – | – | – | – | – | 109% | 110% | 132% | 111% | 111% | 116% | 117% | 107% | 98.3% | 99.8% | 85.1% | 107% | 120% | 121% | 118% | 113% | 119% | 111% | 108% | 103% | 98.7% | 86.8%
C1CCN2C[C@H]3C[C@H](\C=C/4CCCN[C@@H]34)[C@H]2C1 | 96.5% | 113% | 113% | 133% | 96.1% | 122% | 137% | 107% | 115% | 99.5% | 92.8% | 105% | 105% | 108% | 104% | 98.7% | 108% | 104% | 105% | 108% | 63.7% | 55% | 107% | 108% | 114% | 121% | 108% | 108% | 120% | 111% | 120% | 78.6% | 64.2%
N=C1N[C@H]2[C@H](CS[C@H]2CCCCC(=O)O)N1 | 86.7% | 115% | 121% | 120% | 139% | 126% | 146% | 129% | 138% | 118% | 137% | 113% | 114% | 110% | 109% | 111% | 123% | 107% | 117% | 112% | 120% | 110% | 109% | 122% | 119% | 132% | 121% | 135% | 121% | 131% | 119% | 143% | 136%
Cc1c[nH]c(-c2cnc(NCCNc3ccc(C#N)cn3)nc2-c2ccc(Cl)cc2Cl)n1 | 72.9% | 85.8% | 94.2% | 78.5% | 87.3% | 101% | 89.5% | 93.3% | 80.3% | 67.5% | 57.7% | 66.4% | 79.7% | 83.7% | 80.7% | 96.7% | 83.5% | 77.5% | 85.7% | 76.5% | 81.3% | 64.2% | 76.7% | 80.8% | 90.1% | 89.2% | 83.6% | 90.2% | 85.9% | 94.6% | 64.8% | 88% | 64.7%
CN1CCN(C(=O)O[C@H]2c3nccnc3C(=O)N2c2ccc(Cl)cn2)CC1 | 115% | 102% | 119% | 114% | 114% | 112% | 114% | 101% | 91.1% | 98.4% | 88.1% | 94.8% | 99.2% | 92.4% | 106% | 103% | 99.4% | 99.4% | 97.9% | 99.3% | 93.8% | 84.6% | 97.6% | 107% | 103% | 94.2% | 99.1% | 97% | 105% | 97.2% | 97% | 88.5% | 78.5%
COc1cc(/C=C/C(=O)O)ccc1O | 76.1% | 90.7% | 91.8% | 100% | 107% | 100% | 103% | 98.8% | 82.6% | 108% | 101% | 84.9% | 112% | 87.8% | 93.6% | 95.2% | 101% | 92.2% | 95.1% | 107% | 96.6% | 104% | 84.3% | 91% | 93.9% | 93.1% | 83.7% | 96.3% | 95.7% | 86.9% | 89.9% | 92.5% | 102%
